Experimental data as given in US20220289685A1, “ANTIMALARIAL HEXAHYDROPYRIMIDINE ANALOGUES” (UCB BIOPHARMA SRL, priority 2019, published 2022).
Structures can show the parent of a compound that is named as a salt.

Test system: Plasmodium falciparum 3D7 strain
Experiment: P. falciparum 3D7 asexual blood stage assay (SYBR green readout)
Format: cell-based
Settings: Plasmodium falciparum, 3D7, Erythrocyte, 72 h
Experimental: Asexual Blood Stage Assay
The assay used to measure the effect of test compounds on a bloodstream stage of Plasmodium falciparum: 3D7 strain employs SYBR green as the readout. This is a dye that binds to double stranded deoxyribonucleic acid (DNA) with a resulting increase in fluorescence, allowing detection of P. falciparum DNA in infected erythrocytes, and thereby providing a measure of parasite growth and propagation.
P. falciparum Culture Maintenance
Erythrocytes (A+ blood) were prepared for both parasite culture and assay by washing 4 times with incomplete media (15.9 g RPMI 1640 (25 mM HEPES, L-glutamine), 1 g NaHCO3, 2 g glucose, 400 μL gentacin (500 mg/mL), 2 mL hypoxanthine solution (13.6 g/L in 0.1M NaOH pH 7.3) in 1 litre of media). The cells were centrifuged at 1800 g for 5 minutes, before decanting the supernatant and re-suspending in fresh incomplete media. On the final wash, the cells were re-suspended in complete media (incomplete media with 5 g/L AlbumaxII), and centrifuged at 1800 g for 3 minutes. This cell sediment was treated as 100% haematocrit.
P. falciparum 3D7 was cultured in erythrocytes at 5% haematocrit in complete media at 37° C. (1% O2, 3% CO2, balance N2). Cultures were split on a weekly basis to achieve a 1% parasitaemia in erythrocites at 5% haematocrit in fresh media. Culture media is replaced by fresh media every other day (2 times during the week).
On day 1, test compounds were added to assay plates using Echo dispensing technology ([…] and 20 points titration). 50 nL of each compound dilution was added to 50 μL of culture (5% haematocrit, 0.5% parasitaemia) and incubated for 72 h at 37° C. (1% O2, 3% CO2, balance N2). Final concentrations of test compounds ranged from 50,000 nM to 15 nM, in […].
On day 4, 10 μL SYBR green (Invitrogen S7563 supplied as 10,000× concentrate in DMSO) pre-diluted to 3× concentrate with Lysis buffer (20 mM Tris pH 7.9, 5% EDTA, 0.16% w/v, 1.6% TX100 v/v) was added to the cultures and incubated in the dark, overnight, at room temperature.
On day 5, fluorescent signal was measured using a BioTek plate reader (excitation 485 nm, emission 528 nm). All data were processed using IDBS ActivityBase. Raw data were converted into percent inhibition through linear regression by setting the high inhibition control (mefloquine) as 100% and the no inhibition control (DMSO) as 0%. Quality control criteria for passing plates were as follows: Z′>0.5, S:B>3, 30% CV(no inhibition control)<15. The formula used to calculate Z′ is: […]
All EC50 curve fitting was undertaken using the following bi-phasic two site dose response using XLfit model 300 (IDBS):
where A=100 minus the top of the upper curve 1 and the bottom of lower curve; B=Hill slope; log(C)=IC50 concentration at lower site; log(D)=IC50 concentration at upper site; x=inhibitor concentration; and y=% inhibition.

Row | Structure (SMILES) | IC50
1 | C[C@@H]1C[C@H](N2C(=N)N[C@](C)(c3cccc(NC(=O)c4ccc(Cl)c(C#N)c4)c3Cl)CC2=O)CCO1 (relative stereo) [Example 117, 4-Chloro-N-(2-chloro-3-{(4S)-2-imino-4-methyl-1-[(2R*,4R*)-2-methyltetrahydropyran-4-yl]-6-oxo-hexahydropyrimidin-4-yl}phenyl)-3-cyanobenzamide trifluoroacetic acid salt] | 17 nM
2 | C[C@@H]1C[C@H](N2C(=N)N[C@](C)(c3cccc(NC(=O)c4ccc(F)cc4)c3Cl)CC2=O)CCO1 (relative stereo) [Example 3, N-(2-Chloro-3-{(4S)-2-imino-4-methyl-1-[(2R*,4R*)-2-methyl-tetrahydropyran-4-yl]-6-oxo-hexahydropyrimidin-4-yl]phenyl)-4-fluorobenzamide hydrochloride] | 132 nM
3 | C[C@@H]1C[C@H](N2C(=N)N[C@](C)(c3cccc(NC(=O)c4ccncn4)c3Cl)CC2=O)CCO1 (relative stereo) [Example 16, N-(2-Chloro-3-{(4S)-2-imino-4-methyl-1-[(2R*,4R*)-2-methyl-tetrahydropyran-4-yl]-6-oxo-hexahydropyrimidin-4-yl}phenyl)-pyrimidine-4-carboxamide hydrochloride] | 23 nM
4 | C[C@@H]1C[C@H](N2C(=N)N[C@](C)(c3cccc(NC(=O)c4ccccc4F)c3Cl)CC2=O)CCO1 (relative stereo) [Example 35, N-(2-Chloro-3-{(4S)-2-imino-4-methyl-1-[(2R*,4R*)-2-methyl-tetrahydropyran-4-yl]-6-oxo-hexahydropyrimidin-4-yl}phenyl)-2-fluorobenzamide trifluoroacetic acid salt] | 11 nM
5 | Cc1ccncc1C(=O)Nc1cccc([C@]2(C)CC(=O)N([C@@H]3CCO[C@H](C)C3)C(=N)N2)c1Cl (relative stereo) [Example 82, N-(2-Chloro-3-{(4S)-2-imino-4-methyl-1-[(2R*,4R*)-2-methyl-tetrahydropyran-4-yl]-6-oxo-hexahydropyrimidin-4-yl}phenyl)-4-methylpyridine-3-carboxamide trifluoroacetic acid salt] | 35 nM
6 | Cc1ccc(C(=O)Nc2cccc([C@]3(C)CC(=O)N([C@@H]4CCO[C@H](C)C4)C(=N)N3)c2Cl)nn1 (relative stereo) [Example 54, N-(2-Chloro-3-{(4S)-2-imino-4-methyl-1-[(2R*,4R*)-2-methyl-tetrahydropyran-4-yl]-6-oxo-hexahydropyrimidin-4-yl}phenyl)-6-methylpyridazine-3-carboxamide hydrochloride] | 170 nM
7 | CC#Cc1cncc(C(=O)Nc2cccc([C@]3(C)CC(=O)N([C@@H]4CCO[C@H](C)C4)C(=N)N3)c2Cl)c1 (relative stereo) [Example 108, N-(2-Chloro-3-{(4S)-2-imino-4-methyl-1-[(2R*,4R*)-2-methyl-tetrahydropyran-4-yl]-6-oxo-hexahydropyrimidin-4-yl}phenyl)-5-(prop-1-ynyl)pyridine-3-carboxamide hydrochloride] | 40 nM
8 | C[C@@H]1C[C@H](N2C(=N)N[C@](C)(c3cccc(NC(=O)c4cccnc4C4CC4)c3Cl)CC2=O)CCO1 (relative stereo) [Example 57, N-(2-Chloro-3-{(4S)-2-imino-4-methyl-1-[(2R*,4R*)-2-methyl-tetrahydropyran-4-yl]-6-oxo-hexahydropyrimidin-4-yl]phenyl)-2-cyclopropylpyridine-3-carboxamide hydrochloride] | 476 nM
9 | C[C@@H]1C[C@H](N2C(=N)N[C@](C)(c3cccc(NC(=O)c4cc(C#N)ccc4F)c3Cl)CC2=O)CCO1 (relative stereo) [Example 76, N-(2-Chloro-3-{(4S)-2-imino-4-methyl-1-{(2R*,4R*)-2-methyl-tetrahydropyran-4-yl]-6-oxo-hexahydropyrimidin-4-yl}phenyl)-5-cyano-2-fluorobenzamide hydrochloride] | 11 nM
10 | C[C@@H]1C[C@H](N2C(=N)N[C@](C)(c3cccc(NC(=O)c4ccc(F)c(C#N)c4)c3Cl)CC2=O)CCO1 (relative stereo) [Example 116, N-(2-Chloro-3-{(4S)-2-imino-4-methyl-1-[(2R* ,4R* )-2-methyl-tetrahydropyran-4-yl]-6-oxo-hexahydropyrimidin-4-yl]phenyl)-3-cyano-4-fluorobenzamide trifluoroacetic acid salt] | 89 nM
11 | COc1ccc(S(C)(=O)=O)cc1C(=O)Nc1cccc([C@]2(C)CC(=O)N([C@@H]3CCO[C@H](C)C3)C(=N)N2)c1Cl (relative stereo) [Example 85, N-(2-Chloro-3-{(4S)-2-imino-4-methyl-1-[(2R*,4R*)-2-methyl-tetrahydropyran-4-yl]-6-oxo-hexahydropyrimidin-4-yl}phenyl)-2-methoxy-5-(methylsulfonyl)-benzamide trifluoroacetic acid salt] | 76 nM
12 | C[C@@H]1C[C@H](N2C(=N)N[C@](C)(c3cccc(NC(=O)c4cc(C#N)cn4C)c3Cl)CC2=O)CCO1 (relative stereo) [Example 113, N-(2-Chloro-3-{(4S)-2-imino-4-methyl-1-[(2R*,4R*)-2-methyl-tetrahydropyran-4-yl]-6-oxo-hexahydropyrimidin-4-yl}phenyl)-4-cyano-1-methylpyrrole-2-carboxamide trifluoroacetic acid salt] | 5 nM
13 | C[C@@H]1C[C@H](N2C(=N)N[C@](C)(c3cccc(NC(=O)c4cncnc4)c3Cl)CC2=O)CCO1 (relative stereo) [Example 38, N-(2-Chloro-3-{(4S)-2-imino-4-methyl-1-[(2R*,4R*)-2-methyl-tetrahydropyran-4-yl]-6-oxo-hexahydropyrimidin-4-yl]phenyl)-pyrimidine-5-carboxamide trifluoroacetic acid salt] | 110 nM
14 | C[C@@H]1C[C@H](N2C(=N)N[C@](C)(c3cccc(NC(=O)c4cccc(Cl)c4)c3Cl)CC2=O)CCO1 (relative stereo) [Example 11, 3-Chloro-N-(2-chloro-3-{(4S)-2-imino-4-methyl-1-[(2R*,4R*)-2-methyltetrahydropyran-4-yl]-6-oxo-hexahydropyrimidin-4-yl]phenyl)-benzamide hydrochloride] | 9 nM
15 | C[C@@H]1C[C@H](N2C(=N)N[C@](C)(c3cccc(NC(=O)c4ccc(F)cc4C(F)(F)F)c3Cl)CC2=O)CCO1 (relative stereo) [Example 80, N-(2-Chloro-3-{(4S)-2-imino-4-methyl-1-[(2R*,4R*)-2-methyl-tetrahydropyran-4-yl]-6-oxo-hexahydropyrimidin-4-yl}phenyl)-4-fluoro-2-(trifluoromethyl)-benzamide trifluoroacetic acid salt] | 61 nM
16 | C[C@@H]1CC(N2C(=N)N[C@](C)(c3cccc(NC(=O)c4cccn5nnnc45)c3Cl)CC2=O)CCO1 (relative stereo) [Example 29, N-(2-Chloro-3-{(4S)-2-imino-4-methyl-1-[(2R*,4R*)-2-methyl-tetrahydropyran-4-yl]-6-oxo-hexahydropyrimidin-4-yl}phenyl)-tetrazolo[1,5-a] pyridine-8-carboxamide trifluoroacetic acid salt] | 23 nM
17 | C[C@@H]1C[C@H](N2C(=N)N[C@](C)(c3cccc(NC(=O)c4cnccc4F)c3Cl)CC2=O)CCO1 (relative stereo) [Example 96, N-(2-Chloro-3-{(4S)-2-imino-4-methyl-1-[(2R*,4R*)-2-methyl-tetrahydropyran-4-yl]-6-oxo-hexahydropyrimidin-4-yl}phenyl)-4-fluoropyridine-3-carboxamide hydrochloride] | 565 nM
18 | C[C@@H]1C[C@H](N2C(=N)N[C@](C)(c3cccc(NC(=O)c4cncc(F)c4)c3Cl)CC2=O)CCO1 (relative stereo) [Example 40, N-(2-Chloro-3-{(4S)-2-imino-4-methyl-1-[(2R*,4R*)-2-methyl-tetrahydropyran-4-yl]-6-oxo-hexahydropyrimidin-4-yl]phenyl)-5-fluoropyridine-3-carboxamide trifluoroacetic acid salt] | 34 nM
